Measured values as given in paper PMC12509316, “Isoform-Selective PAD2/PAD4 Substrates with Unnatural Amino Acids Enable Cellular Peptidylarginine Deiminase Activity Profiling and Reveal Vimentin Citrullination Effects in Macrophages” (Biochemistry, 2025).
Non-standard residues stand in square brackets, D forms with d. *: point of attachment. Phe(3-I) = N[C@@H](Cc1cccc(I)c1)C(=O)O; ACC = NC(=O)Cc1cc(=O)oc2cc(N*)ccc12; hCha = N[C@@H](CCC1CCCCC1)C(=O)O; hPhe = N[C@@H](CCc1ccccc1)C(=O)O; 3Pal = N[C@@H](Cc1cccnc1)C(=O)O; OBn = c1ccc(CO*)cc1

Legend:
[1] = system: THP-1 cells; experiment: Protein analysis of PMA-differentiated THP-1 cells (Western blot); assay type: cell-based, human; conditions: for GSDMD cleavage / caspase-1 processing to p10 fragment / vimentin and GSDMD protein levels: 1 h pretreatment before 40 nM PMA; for GSDMD cleavage / caspase-1 processing to p10 fragment: BAPTA 10 μM, calpeptin 100 μM; for caspase-1 processing to p10 fragment / vimentin and GSDMD protein levels: Cl-amidine 25 μM, Z-DEVD-FMK 10 μM, VX-765 10 μM
Description: Low-passage THP-1 cells were seeded into 12-well plates and treated with increasing concentrations of phorbol 12-myristate 13-acetate (PMA) ranging from 1 nM to 100 nM. The cells were incubated for 24 h to allow adherence and differentiation. Following incubation, the cells were lysed, and the lysates were subjected to SDS-PAGE (200 V, 30 min) and Western blot analysis. The expression and cleavage of vimentin, gasdermin D (GSDMD), NLRP3, and caspase-1 were analyzed using specific primary antibodies (1:500–1:1,000), followed by incubation with an antirabbit secondary antibody conjugated to Alexa Fluor 800 (1:10,000). Fluorescence signals were detected using an Azure Biosystems Sapphire RGB-NIR biomolecular imager. Ponceau S staining was used as a loading control to ensure equal protein loading in each lane. In a subsequent experiment, THP-1 cells were pretreated with specific inhibitors for 1 h prior to PMA-induced differentiation (40 nM PMA). The inhibitors used were: BAPTA (10 μM, calcium chelator), calpeptin (100 μM, calpain inhibitor), 4-bisindolylmaleimide (25 μM, PKC inhibitor), N-α-benzoyl-N5-(2-chloro-1-iminoethyl)-L-Orn amide or Cl-amidine (25 μM, pan PAD inhibitor, PADi), Z-DEVD-FMK (10 μM, caspase-3 inhibitor), and VX-765 (10 μM, caspase-1 inhibitor). After PMA treatment, the cells were lysed, and the lysates were processed for SDS-PAGE (200 V, 30 min) and Western blotting. Protein detection and visualization were performed in the same manner as in the cell-based experiments without inhibitors.

[2] = system: PMA/LPS-treated THP-1 cells; experiment: Western blot of GSDMD and IL-1β processing after DAMP treatment; assay type: cell-based, human
Description: THP-1 cells were seeded and stimulated with PMA and LPS, as described in “Protein analysis of PMA-differentiated THP-1 cells” section. After stimulation, vimentin, citrullinated vimentin, or their cleavage products-generated by caspase-3 or calpain-1 digestion were added to the cells, which were then incubated for an additional 48 h. Following incubation, lactate dehydrogenase (LDH) activity in the supernatant was measured using the CytoTox 96 Non-Radioactive Cytotoxicity Assay (G1718) as an indicator of membrane disruption, according to the manufacturer’s protocol. Cytotoxicity was calculated as the percentage of LDH released from the treated samples relative to the LDH release induced by the lysis buffer and normalized to the spontaneous release from the control cells. Absorbance was measured at 490 nm using a spectrophotometric microplate reader (Gemini XPS, Molecular Devices). All experiments were independently performed in triplicate. Statistical analyses were performed using GraphPad Prism software (GraphPad Software, Inc., La Jolla, CA, USA). One-way ANOVA followed by Tukey’s multiple comparisons posthoc test was used to determine statistical significance. For Western blot analysis, proteins from the cell lysates were prepared as described in “Protein analysis of PMA-differentiated THP-1 cells”. To isolate proteins from the supernatant, 1 mL of the sample was mixed with 0.5 mL of 30% trichloroacetic acid (TCA) at room temperature and incubated on ice for 30 min. The mixture was centrifuged at 12,000 × g for 20 min at 4 °C. The supernatant was discarded, and the pellet was washed with 100 μL of 10% TCA, followed by centrifugation. The pellet was then washed with 300 μL of acetone, centrifuged again, and allowed to dry completely. The remaining residues were dissolved in SDS-PAGE loading buffer under reducing conditions. Proteins of interest were detected using primary antibodies against GSDMD and interleukin-1β (IL-1β), followed by secondary antirabbit antibodies conjugated with Alexa Fluor 800. Fluorescence signals were visualized using an Azure Biosystems Sapphire RGB-NIR biomolecular imager. Ponceau S staining was used as a loading control to verify equal protein loading in the SDS-PAGE.

[3] = system: PAD4; experiment: Trypsin-coupled fluorogenic citrullination assay of ACC substrates with recombinant PAD4; assay type: biochemical, human; conditions: for selectivity for PAD4 over PAD2: comparison of citrullination by PAD4 and PAD2, 37.5-300 nM enzyme; for citrullination of substrate by PAD4: substrate 10 μM, PAD4 37.5-300 nM, 15 min preincubation, then trypsin 5 nM, ACC fluorescence ex 355/em 460 nm, pH 7.2, 5 mM CaCl2, triplicate
Description: (§1) All kinetic studies were conducted using an fMax fluorescence plate reader (Molecular Devices) operating in the fluorescence kinetic mode with 96- or 384-well plates. The fluorescence of ACC was monitored at excitation and emission wavelengths of 355 and 460 nm, respectively. The assay buffers for PADs and trypsin consisted of 100 mM TRIS-HCl, 10 mM NaCl, 5 mM CaCl2, and 5 mM DTT (pH 7.2). All experiments, including library screening and substrate kinetics, were repeated at least three times and the average values were reported. Kinetic data were analyzed using GraphPad Prism software (version 10.2.0).
(§2) Substrate screening for PAD2 and PAD4 was performed at a final substrate concentration of 10 μM, as described in “PAD substrate specificity profiling section”. PAD2 and PAD4 were tested across a concentration range of 37.5 nM to 300 nM, whereas the trypsin concentration was 5 nM. Briefly, each substrate was preincubated with the specified concentration of PAD in a 50 μL reaction volume (or in 50 μL of buffer for PAD-untreated control) for 15 min, after which 50 μL of trypsin was added to the reaction wells. The hydrolysis of Arg-containing substrates by trypsin was monitored over time. The percentage of substrate citrullination was calculated by comparing the extent of trypsin-mediated cleavage of untreated substrates with that of substrates preincubated with PAD. Each assay was performed in triplicate, and the resulting citrullination percentages are presented graphically. The standard deviation of each data point was less than 15%.

[4] = system: PAD2; experiment: Trypsin-coupled fluorogenic citrullination assay of ACC substrates with recombinant PAD2; assay type: biochemical, human; conditions: for citrullination of substrate by PAD2: substrate 10 μM, PAD2 37.5-300 nM (effective at 150-300 nM), 15 min preincubation, then trypsin 5 nM, ACC fluorescence ex 355/em 460 nm, pH 7.2, 5 mM CaCl2, triplicate; for selectivity for PAD2 over PAD4: comparison of citrullination by PAD2 and PAD4, 37.5-300 nM enzyme
Description: as §1, §2

[5] = system: PAD4; experiment: Vimentin citrullination assay (Western blot); assay type: biochemical, human; conditions: recombinant vimentin 80 μg, 100 nM PAD4, 5-60 min
Description: Recombinant vimentin (80 μg) was incubated with 100 nM PAD4 for varying durations (5–60 min). Following incubation, the samples were subjected to SDS-PAGE, and the proteins were subsequently transferred onto a nitrocellulose membrane. Western blot analysis was performed using antivimentin and anticitrullinated vimentin antibodies, followed by a secondary antibody conjugated to Alexa Fluor 800 to assess the time-dependent decrease in native vimentin levels and the corresponding increase in citrullinated vimentin levels. Subsequently, both native and citrullinated vimentin were incubated with either human recombinant caspase-3 (20 nM) or calpain-1 (10 nM) for 30 min. After incubation, the samples were analyzed by SDS-PAGE followed by colloidal Coomassie dye G-250 (Thermo, 24590) staining.

In the case of `O=C(O)CN(CC(=O)O)c1ccccc1OCCOc1ccccc1N(CC(=O)O)CC(=O)O` [BAPTA], the GSDMD cleavage [1] is reported as “cleavage of GSDMD” and the “caspase-1 processing to p10 fragment” value [1] is reported as “processed into its active 10 kDa fragment”.

For `N=C(CCl)NCCC[C@H](NC(=O)c1ccccc1)C(N)=O` [Cl-amidine, N-α-benzoyl-N5-(2-chloro-1-iminoethyl)-L-Orn amide], the “caspase-1 processing to p10 fragment” value [1] was “prevented” and the “vimentin and GSDMD protein levels” value [1] was “marked downregulation”.

In the case of `CCCCCCCCCCCCCC(=O)O[C@@H]1[C@@H](C)[C@@]2(O)[C@@H](C=C(CO)C[C@]3(O)C(=O)C(C)=C[C@@H]23)[C@@H]2C(C)(C)[C@]12OC(C)=O` [PMA, phorbol 12-myristate 13-acetate], the “GSDMD and NLRP3 protein levels” value ([1]; PMA 1-100 nM, 24 h) is reported as “downregulating” and the vimentin protein level ([1]; PMA 1-100 nM, 24 h) is reported as “dose-dependent upregulation”.

In the case of `CCO[C@@H]1OC(=O)C[C@@H]1NC(=O)[C@@H]1CCCN1C(=O)[C@@H](NC(=O)c1ccc(N)c(Cl)c1)C(C)(C)C` [VX-765], the “caspase-1 processing to p10 fragment” value [1] is reported as “prevented” and the “vimentin and GSDMD protein levels” value [1] is reported as “marked downregulation”.

In the case of `COC(=O)CC[C@H](NC(=O)[C@H](CC(=O)OC)NC(=O)OCc1ccccc1)C(=O)N[C@H](C(=O)N[C@@H](CC(=O)OC)C(=O)CF)C(C)C` [Z-DEVD-fmk, Z-DEVD-FMK], the “caspase-1 processing to p10 fragment” value [1] is reported as “prevented” and the “vimentin and GSDMD protein levels” value [1] is reported as “marked downregulation”.

In the case of `CCCC[C@@H](C=O)NC(=O)[C@H](CC(C)C)NC(=O)OCc1ccccc1` [calpeptin], the GSDMD cleavage [1] is reported as “cleavage of GSDMD” and the “caspase-1 processing to p10 fragment” value [1] is reported as “processed into its active 10 kDa fragment”.

For `CO[C@@H]1C[C@@H](C[C@H]2CC[C@H](C)[C@H]([C@@H](C)C(=O)O)O2)O[C@]2(O[C@](C)([C@H]3CC[C@@](C)([C@@H]4O[C@@H]([C@H]5O[C@@](O)(CO)[C@H](C)C[C@@H]5C)C[C@@H]4C)O3)C[C@H]2C)[C@@H]1C` [nigericin, reference compound], the GSDMD processing fragment [2] was “p31 fragment” and the pro-IL-1β processing [2] was “activation of pro-interleukin-1β”.

“Ac-D(OBn)[dY]DR-{ACC} (SMILES CC(=O)N[C@@H](CC(=O)OCc1ccccc1)C(=O)N[C@H](Cc1ccc(O)cc1)C(=O)N[C@@H](CC(=O)O)C(=O)N[C@@H](CCCNC(=N)N)C(=O)Nc1ccc2c(CC(N)=O)cc(=O)oc2c1) [(4)-NH-2]” was tested, and the “selectivity for PAD4 over PAD2” value [3] was “most selective”, the “citrullination of substrate by PAD4” value [3] was “efficiently processed” and the “citrullination of substrate by PAD2” value [4] was “poorly recognized”.

In the case of “Ac-D(OBn)[hCha]DR-{ACC} (SMILES CC(=O)N[C@@H](CC(=O)OCc1ccccc1)C(=O)N[C@@H](CCC1CCCCC1)C(=O)N[C@@H](CC(=O)O)C(=O)N[C@@H](CCCNC(=N)N)C(=O)Nc1ccc2c(CC(N)=O)cc(=O)oc2c1) [(4)-NH-11]”, the “citrullination of substrate by PAD2” value [4] is reported as “some degree of cross-reactivity”.

In the case of “Ac-NV[hCha]R-{ACC} (SMILES CC(=O)N[C@@H](CC(N)=O)C(=O)N[C@H](C(=O)N[C@@H](CCC1CCCCC1)C(=O)N[C@@H](CCCNC(=N)N)C(=O)Nc1ccc2c(CC(N)=O)cc(=O)oc2c1)C(C)C) [(2)-NH-8]”, the “citrullination of substrate by PAD4” value [3] is reported as “only minor processing”, the “selectivity for PAD2 over PAD4” value [4] is reported as “most selective” and the “citrullination of substrate by PAD2” value [4] is reported as “higher reactivity”.

With “Ac-[Phe(3-I)][3Pal]DR-{ACC} (SMILES CC(=O)N[C@@H](Cc1cccc(I)c1)C(=O)N[C@@H](Cc1cccnc1)C(=O)N[C@@H](CC(=O)O)C(=O)N[C@@H](CCCNC(=N)N)C(=O)Nc1ccc2c(CC(N)=O)cc(=O)oc2c1) [(4)-NH-12]” the “selectivity for PAD4 over PAD2” value [3] was “most selective”, the “citrullination of substrate by PAD4” value [3] was “efficiently processed” and the “citrullination of substrate by PAD2” value [4] was “poorly recognized”.

With “Ac-[Phe(3-I)][hCha]DR-{ACC} (SMILES CC(=O)N[C@@H](Cc1cccc(I)c1)C(=O)N[C@@H](CCC1CCCCC1)C(=O)N[C@@H](CC(=O)O)C(=O)N[C@@H](CCCNC(=N)N)C(=O)Nc1ccc2c(CC(N)=O)cc(=O)oc2c1) [(4)-NH-13]” the “citrullination of substrate by PAD2” value [4] was “some degree of cross-reactivity”.

“Ac-[dY]A[hPhe]R-{ACC} (SMILES CC(=O)N[C@H](Cc1ccc(O)cc1)C(=O)N[C@@H](C)C(=O)N[C@@H](CCc1ccccc1)C(=O)N[C@@H](CCCNC(=N)N)C(=O)Nc1ccc2c(CC(N)=O)cc(=O)oc2c1) [(2)-NH-7]” was tested, and the “citrullination of substrate by PAD4” value [3] was “only minor processing”, the “selectivity for PAD2 over PAD4” value [4] was “most selective” and the “citrullination of substrate by PAD2” value [4] was “higher reactivity”.

“citrullinated vimentin: PAD4-mediated citrullinated vimentin” was tested, and the pro-IL-1β processing [2] was “no cleavage”.

For “vimentin: Recombinant vimentin, purchased from Biotechne (NBP2-35139)”, the pro-IL-1β processing [2] was “no cleavage” and the “citrullination of vimentin by PAD4” value [5] was “efficient citrullination”.
